The record followed here is patent US20090131524A1, “SIALIC ACID ABC TRANSPORTERS IN PROKARYOTES THERAPEUTIC TARGETS” (BUCK INSTITUTE, priority 2005, published 2009).

For the test, the system named is H. ducreyi. The experiment in a line: growth of H. ducreyi in the presence of sialic acid. The class given is cell-based, Haemophilus ducreyi. The method, then: H. ducreyi strains were cultured on chocolate agar plates at 35° C. in a 5% CO2 atmosphere as previously described (42). Chocolate agar was supplemented with 1 mM NeuAc (Calbiochem, La Jolla, Calif.) or kanamycin at 20 μg/ml when appropriate. E. coli strains were grown on Luria-Bertani (LB) plates or in LB broth, and were supplemented with kanamycin when appropriate.
In this and previous studies, H. ducreyi were grown on plates containing high levels of sialic acid (22, 50). […] To more quantitatively test whether the presence of high levels of sialic acid affected the growth rate of H. ducreyi, growth curves of H. ducreyi in low (˜0.5 μM, basal level in media) (50), medium (10 μM), and high (1 mM) sialic acid conditions were performed (46). […] Both E. coli and H. influenzae seem to utilize their ability to degrade sialic acid as one mechanism of controlling the intracellular levels of sialic acid (66, 68, 69). As noted above, it is currently unclear if H. ducreyi is able to degrade sialic acid. Another possible mechanism for controlling sialic acid uptake may be through the PBPs. […] Therefore, it is possible that SatA may play an important role in controlling sialic acid uptake in H. ducreyi. One mechanism of control could be that the level of satA expression may be affected by the intracellular levels of sialic acid. […]

Take `CC(=O)N[C@H]1[C@H]([C@H](O)[C@H](O)CO)OC(O)(C(=O)O)C[C@@H]1O` (some centres unmarked) [sialic acid, N-acetyl-neuraminic acid]: for the setting “grown on plates containing high levels of sialic acid”, the “effect of sialic acid on growth of the bacteria on plates” value is listed as “did not seem to affect the growth”. Also, the “growth rate (growth curves)” value (low (~0.5 μM, basal level in media), medium (10 μM) and high (1 mM) sialic acid) is “no differences in the growth rates”.
